Where a name gives a salt, the structure may show the parent alone. Read-outs that look alike come from different tables or passages of the source.
Key:
[1] = cited from earlier work
[2] = system: potassium conductance of pancreatic beta cells; details: cited from earlier work
[3] = cited from earlier work; remark: listed apart in the source
chloride channel = test: whole-cell patch clamp of chloride channel current in isolated cells from a cultured kidney cell line
Description: Using isolated cells from a cultured kidney cell line, we tested the effects of various doses of Sparteine applied to the interior and exterior of the cell on current through the chloride channel as measured with standard patch clamp electrophysiologic techniques.

[4] = system: chloride conductance of CF/T43 cells; test: whole-cell chloride current in CF/T43 cystic fibrosis airway epithelial cells; format: cell-based, human
Description: An aliquot of cells from a cell line, CF/T43, derived from airway epithelia from a patient with cystic fibrosis were used.
Data were obtained using internal and external solutions as described by McCann, Li and Welsh in studies of whole cell ICI in normal human airway epithelial cells so as to be able to compare our data with theirs. The internal solutions are cesium-based providing a minimal internal calcium concentration (nominally 0-10 nM, with EGTA) and the external solution is sodium-based with symmetrical CI concentrations of 140 mM. No cyclic nucleotides are included in the solutions and amiloride is added to block the sodium conductance.

potassium channel = details: requires millimolar concentrations; cited from earlier work
sodium channels = sodium channels (Cavia porcellus, UniProt A0A286Y3I8); details: requires millimolar concentrations; cited from earlier work

C1CCN2C[C@@H]3C[C@@H](CN4CCCC[C@@H]34)[C@H]2C1 [Sparteine sulfate]
insulin secretion ([1]; healthy human beings): enhance insulin secretion | glucagon secretion ([1]; insulin-dependent diabetics): increase glucagon secretion | insulin secretion ([1]; non-diabetic obese individuals, intravenous administration): significant increase in insulin secretion | potassium conductance of pancreatic beta cells [2]: decreases the potassium conductance | water solubility and stability [3]: water soluble and stable

C1CCN2CC3CC(CN4CCCCC34)C2C1 (stereo not drawn) [Sparteine, dodecahydro-7,14-methano-2H,6H-di-pyrido[1,2-a:1',2'-e][1,5]diazocine]
chloride current relative to the control value (chloride channel; Sparteine 0.1, 50 and 500 μM): 10-20 X | peak current through the chloride channel (chloride channel; Sparteine 0.1, 50 and 500 μM, cells dialyzed with ATP, no cAMP, 10 nM calcium, depolarized to +70 mV from holding potential -45 mV): 80-200 μA/cm^2 | time course of the activated current with increasing dose (chloride channel; above 0.1 μM): increasingly rapid decline in the activated current | effect of externally applied compound on chloride current (chloride channel; external, 0.1 to 10 nM): marked augmentation of the chloride current | effect on the chloride channel at higher concentrations (chloride channel; higher (micromolar-millimolar) concentrations): potent inhibitor | effect on the chloride channel at low concentrations (chloride channel; low (pico-nanomolar) concentrations): very potent activator | current amplitude ([4]; external 0.1 nM, no cyclic nucleotides, minimal internal calcium, amiloride present): marked increase in current amplitude | reversal potential of the induced current ([4]; external 0.1 nM, symmetrical Cl 140 mM): 0 mV | induction of chloride current in cystic fibrosis cells ([4]; pM, absence of cytosolic Ca^2+ and cyclic nucleotides): induces a chloride current | reversibility of the activated current ([4]; washout): reversible | action on olfactory tract axons (potassium channel): potassium channel blocker | antiarrhythmic classification due to effects on sodium channels (sodium channels): Class 1 cardiac antiarrhythmic

calcium
maximum chloride current with known activator added to the internal solution (chloride channel; depolarized to +70 mV from -45 mV): 40-50
